Test results reported in ChEMBL document CHEMBL1201862, “PubChem BioAssay data set” (2004).
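Cells were grown in 96-well plates and exposed to each compound for 48 hours at five concentrations; endpoints were interpolated linearly between bracketing concentrations, or set to the highest concentration if not reached. Abbreviation: GI50, concentration required for 50% inhibition of growth.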 Calls of active or inactive are those of the source. Cut-off read from the data, not from the text of the source: active = GI50 up to about 1.1 µM and inactive = higher.

Columns and labels:
Assay in all cases: NCI anticancer screen, dose series, 48 h
[1] = tested on: 786-0
[2] = tested on: OVCAR-4
[3] = tested on: Malme-3M
[4] = tested on: CAKI-1
[5] = tested on: SK-MEL-2
[6] = tested on: OVCAR-5
[7] = tested on: DMS-273
[8] = tested on: HOP-18
[9] = tested on: HCT-15
[10] = tested on: SF-268
[11] = tested on: UACC-257
[12] = tested on: SR
[13] = tested on: SF-539
[14] = tested on: RPMI-8226
[15] = tested on: SK-MEL-28
[16] = tested on: KM12
[17] = tested on: UO-31
[18] = tested on: SNB-19
[19] = tested on: KM-20L2
[20] = tested on: HOP-62
[21] = tested on: SF-295
[22] = tested on: SK-MEL-5
[23] = tested on: COLO 205
[24] = tested on: HL-60
[25] = tested on: SNB-75
[26] = tested on: HCC 2998
[27] = tested on: SNB-78
[28] = tested on: CCRF-CEM
[29] = tested on: SK-OV-3
[30] = tested on: SN12C
[31] = tested on: K562
[32] = tested on: A549
[33] = tested on: RXF 393
[34] = tested on: NCI-H23
[35] = tested on: U-251
[36] = tested on: NCI-H522
[37] = tested on: NCI-H460
[38] = tested on: HCT-116
[39] = tested on: LXFL 529
[40] = tested on: UACC-62
[41] = tested on: EKVX
[42] = tested on: M19-MEL
[43] = tested on: NCI-H226
[44] = tested on: ACHN
[45] = tested on: HT-29
[46] = tested on: TK-10
[47] = tested on: MOLT-4
[48] = tested on: A498
[49] = tested on: DLD-1
[50] = tested on: M14
[51] = tested on: IGROV-1
[52] = tested on: XF498
[53] = tested on: OVCAR-8
[54] = tested on: LOX IMVI
[55] = tested on: SW-620
[56] = tested on: OVCAR-3
[57] = tested on: DMS-114
[58] = tested on: HOP-92

## CCC1CCc2c(c(=O)oc3c2cc(OC)c2cccc(OC)c23)C1 (stereo not given)
[1]
  GI50: > 100 µM (inactive)
[2]
  GI50: 76 µM (inactive)
[3]
  GI50: 56.9 µM (inactive)
[4]
  GI50: > 100 µM (inactive)
[5]
  GI50: > 100 µM (inactive)
[6]
  GI50: > 100 µM (inactive)
[7]
  GI50: 42.6 µM (inactive)
[8]
  GI50: > 100 µM (inactive)
[9]
  GI50: > 100 µM
[10]
  GI50: 90.2 µM (inactive)
[11]
  GI50: 67.1 µM (inactive)
[12]
  GI50: 38.1 µM (inactive)
[13]
  GI50: 58.6 µM (inactive)
[14]
  GI50: 49.5 µM (inactive)
[15]
  GI50: > 100 µM (inactive)
[16]
  GI50: 47.8 µM (inactive)
[17]
  GI50: > 100 µM (inactive)
[18]
  GI50: > 100 µM (inactive)
[19]
  GI50: > 100 µM (inactive)
[20]
  GI50: 60.5 µM (inactive)
[21]
  GI50: 32.6 µM (inactive)
[22]
  GI50: 34.8 µM (inactive)
[23]
  GI50: > 100 µM (inactive)
[24]
  GI50: 17.5 µM (inactive)
[25]
  GI50: 55.8 µM (inactive)
[26]
  GI50: 77.1 µM (inactive)
[27]
  GI50: > 100 µM (inactive)
[28]
  GI50: 28.3 µM (inactive)
[29]
  GI50: > 100 µM (inactive)
[30]
  GI50: > 100 µM (inactive)
[31]
  GI50: 40.9 µM (inactive)
[32]
  GI50: 71 µM (inactive)
[33]
  GI50: 21.7 µM (inactive)
[34]
  GI50: 57.1 µM (inactive)
[35]
  GI50: 74.3 µM (inactive)
[36]
  GI50: 36.6 µM (inactive)
[37]
  GI50: 51.1 µM (inactive)
[38]
  GI50: 33.4 µM (inactive)
[39]
  GI50: 44 µM (inactive)
[40]
  GI50: 48.5 µM (inactive)
[41]
  GI50: > 100 µM (inactive)
[42]
  GI50: 55.8 µM (inactive)
[43]
  GI50: > 100 µM (inactive)
[44]
  GI50: 87.7 µM (inactive)
[45]
  GI50: 33.4 µM (inactive)
[46]
  GI50: > 100 µM (inactive)
[47]
  GI50: 23.2 µM (inactive)
[48]
  GI50: > 100 µM (inactive)
[49]
  GI50: 48.3 µM (inactive)
[50]
  GI50: > 100 µM (inactive)
[51]
  GI50: > 100 µM (inactive)
[52]
  GI50: 29.5 µM (inactive)
[53]
  GI50: 50.1 µM (inactive)

## O=C(Nc1ccc(Cl)c(Cl)c1)C1C(=O)N(c2ccc(Cl)c(Cl)c2)C(=O)/C1=N\O (stereo not given)
[1]
  GI50: 44.5 µM (inactive)
[2]
  GI50: 70.1 µM (inactive)
[3]
  GI50: > 100 µM (inactive)
[4]
  GI50: > 100 µM (inactive)
[5]
  GI50: > 100 µM (inactive)
[54]
  GI50: 24.5 µM (inactive)
[6]
  GI50: > 100 µM (inactive)
[7]
  GI50: > 100 µM (inactive)
[8]
  GI50: > 100 µM (inactive)
[9]
  GI50: > 100 µM
[10]
  GI50: > 100 µM (inactive)
[11]
  GI50: 51.2 µM (inactive)
[13]
  GI50: > 100 µM (inactive)
[14]
  GI50: > 100 µM (inactive)
[15]
  GI50: 25.6 µM (inactive)
[17]
  GI50: > 100 µM (inactive)
[18]
  GI50: > 100 µM (inactive)
[19]
  GI50: 43.5 µM (inactive)
[20]
  GI50: > 100 µM (inactive)
[21]
  GI50: 73.5 µM (inactive)
[22]
  GI50: > 100 µM (inactive)
[23]
  GI50: 19.3 µM (inactive)
[25]
  GI50: > 100 µM (inactive)
[26]
  GI50: > 100 µM (inactive)
[55]
  GI50: 49 µM (inactive)
[27]
  GI50: > 100 µM (inactive)
[28]
  GI50: 42.1 µM (inactive)
[56]
  GI50: > 100 µM (inactive)
[29]
  GI50: > 100 µM (inactive)
[30]
  GI50: 61.8 µM (inactive)
[31]
  GI50: 16.9 µM (inactive)
[32]
  GI50: 36.6 µM (inactive)
[34]
  GI50: > 100 µM (inactive)
[35]
  GI50: 66.8 µM (inactive)
[57]
  GI50: 30.3 µM (inactive)
[36]
  GI50: 27.4 µM (inactive)
[38]
  GI50: 32.6 µM (inactive)
[39]
  GI50: > 100 µM (inactive)
[40]
  GI50: > 100 µM (inactive)
[41]
  GI50: 39.6 µM (inactive)
[42]
  GI50: 31.8 µM (inactive)
[43]
  GI50: 50.5 µM (inactive)
[44]
  GI50: > 100 µM (inactive)
[45]
  GI50: 39.4 µM (inactive)
[46]
  GI50: > 100 µM (inactive)
[58]
  GI50: > 100 µM (inactive)
[47]
  GI50: > 100 µM (inactive)
[48]
  GI50: > 100 µM (inactive)
[49]
  GI50: > 100 µM (inactive)
[50]
  GI50: 22.9 µM (inactive)
[51]
  GI50: > 100 µM (inactive)
[53]
  GI50: > 100 µM (inactive)
